# Counter-ions that a name gives are not always drawn.
# Tests used:
# [1] = biological target: T1, Torpedo californica acetylcholinesterase (tcAChE) (Tetronarce californica, UniProt P04058); experiment: biochemical; conditions: individual drug; Torpedo californica AChE (tc); read-out: Acetycholinesterase Inhibition (IC50)
# T1 construct: purchased Sigma-Aldrich (Poole, UK)
# Protocol: A microtiter plate version of the Ellman’s assay was used to determine the activity of human and Torpedo californica acetylcholinesterase enzymes [27]. Assays were undertaken in the presence of either individual drugs or two-drug combinations. Each assay data point within a 96-well plate contained 40 µL of 0.01 M DTNB, 46 µL of 0.1 M (pH 8.0) phosphate buffer, 2 µL of 0.075 M ATCI substrate, and 10 µL of drug or dual-drug combination. […] Enzymatic cleavage of the ATCI substrate was initiated by addition of 2 µL of 0.5 U/mL AChE enzyme. […] Under these assay conditions, a final color change was reached (results not included) such that an end-point assay measurement was taken [29].
# These scoping experiments enabled us to quantify an approximate IC50 for subsequent dose-response experiments. […] These concentrations were also used for dual-drug combination experiments. Experiments undertaken in the absence of inhibitor were designated as 100% enzymatic activity. Assays were performed in duplicates from which a mean was calculated.
# Percentage inhibition of AChE from in vitro assays in response to application of individual or dual-drug ChEIs were calculated using CompuSyn software (http://www.combosyn.com/index.html). […]
# MTT cytotoxicity assay = type: cell-based, human; conditions: human, SH-SY5Y neuroblastoma cells; read-out: Cell Cytotoxicity Log IC50 (converted)
# Protocol: (§1) A MTT assay was used to assess the cytotoxicity of either the individual drugs or dual-drug combinations using the SH-SY5Y neuroblastoma cell line. SH-SY5Y cells were seeded in 96-well plates (passage #15) at a cell density of 3 × 10^4 cells/well in DMEM containing 10% FBS. […] Plates were incubated for 4 h at 37 °C, before removal of the media and replacement with 1:1 (v/v) isopropanol:DMSO. […] Cell viability of cells treated with drugs was quantified by comparison to untreated control cells, set at 100% viability.
# (§2) Values generated for IC50 and for the dual-drug CI were determined using CompuSyn software. […] For cell viability assays, a one-way ANOVA was performed to determine significant changes after treatments compared to control cell viability, set at 100%.
# [2] = tested on: SH-SY5Y neuroblastoma cells; experiment: MTT cytotoxicity assay; type: cell-based, human; conditions: SH-SY5Y, MTT, 48 h; significant change from control
# Protocol: as §1, §2
# [3] = compared to tacrine or berberine; cited from earlier work
# T1 sequence (P04058 22-586): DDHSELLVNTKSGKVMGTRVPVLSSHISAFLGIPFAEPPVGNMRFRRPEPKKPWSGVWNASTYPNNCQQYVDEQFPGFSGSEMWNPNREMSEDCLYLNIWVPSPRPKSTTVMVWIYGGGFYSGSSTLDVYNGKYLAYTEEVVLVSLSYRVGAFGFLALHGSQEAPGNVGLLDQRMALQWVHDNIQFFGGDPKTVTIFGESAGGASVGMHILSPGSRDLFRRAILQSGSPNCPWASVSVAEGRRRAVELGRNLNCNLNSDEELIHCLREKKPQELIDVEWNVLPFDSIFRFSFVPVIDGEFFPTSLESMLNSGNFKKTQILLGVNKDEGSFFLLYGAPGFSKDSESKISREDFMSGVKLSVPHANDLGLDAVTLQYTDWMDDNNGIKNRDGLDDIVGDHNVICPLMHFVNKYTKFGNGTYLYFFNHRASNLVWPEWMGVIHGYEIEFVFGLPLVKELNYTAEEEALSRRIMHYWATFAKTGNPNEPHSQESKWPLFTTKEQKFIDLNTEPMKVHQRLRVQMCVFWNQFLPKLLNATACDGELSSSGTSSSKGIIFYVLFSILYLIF
smiles,measurement,setting,value
"COc1ccc2cc3[n+](cc2c1OC)CCc1cc2c(cc1-3)OCO2 [Ber, berberine hydrochloride]",IC50,[1],3.23 µM
same,IC50 at 48 h,MTT cytotoxicity assay,955 µg/mL
same,concentration needed to reduce cell viability (induce toxicity),[2],≥ 1 µM
"Nc1c2c(nc3ccccc13)CCCC2 [Tac, tacrine hydrochloride]",IC50 at 48 h,MTT cytotoxicity assay,339 µg/mL
same,concentration needed to reduce cell viability (induce toxicity),[2],at least 10 µM
"COc1ccc2c3c1O[C@H]1C[C@@H](O)C=C[C@@]31CCN(C)C2 [Gal, galantamine hydrobromide]",IC50 at 48 h,MTT cytotoxicity assay,12600 µg/mL
same,concentration needed to reduce cell viability (induce toxicity),[2],≥ 100 µM
same,oral bioavailability,[3],relatively high

# — PMC7913148, “Anti-Cholinesterase Combination Drug Therapy as a Potential Treatment for Alzheimer’s Disease” (Brain Sciences, 2021)
